What was measured:
VDR = target: T1, VDR (Homo sapiens, UniProt P11473); assay: Translocation of VDR to the nucleus, imaging flow cytometry in HaCaT; format: cell-based; conditions: 10^–7 M, 12 h
T1 construct: endogenous in cells; host or cells: HaCaT keratinocytes
T1 sequence (P11473 1-427): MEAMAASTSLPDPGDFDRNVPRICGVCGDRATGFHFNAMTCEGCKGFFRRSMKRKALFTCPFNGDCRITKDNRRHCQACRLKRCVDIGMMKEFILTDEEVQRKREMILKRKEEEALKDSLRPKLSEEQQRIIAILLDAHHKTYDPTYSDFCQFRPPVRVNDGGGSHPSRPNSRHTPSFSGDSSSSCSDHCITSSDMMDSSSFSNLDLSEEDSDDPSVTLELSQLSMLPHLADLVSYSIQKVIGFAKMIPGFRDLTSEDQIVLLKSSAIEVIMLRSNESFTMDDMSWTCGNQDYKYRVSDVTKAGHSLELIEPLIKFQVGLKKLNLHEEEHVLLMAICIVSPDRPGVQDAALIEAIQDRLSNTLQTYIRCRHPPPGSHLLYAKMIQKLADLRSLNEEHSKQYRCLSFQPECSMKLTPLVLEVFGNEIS

[1] = system: LXR-response element (LXRE)-driven reporter in CHO cells; assay: LXRE-driven luciferase reporter assay in CHO cells; format: cell-based; conditions: 10^–7 M, CHO and HaCaT cells (Fig. 4C)
Experimental: The effects of vitamin D3 and L3 hydroxyderivatives were tested on the LXRE transcriptional activity using pGreenFire1-LXRE-in-ApoE Lentivirus (System Biosciences, Palo Alto, CA). This plasmid was transduced in CHO and HaCaT cells following the manufacture’s protocol and the cells used as a stable LXRE expressed tool. Briefly, the virus was transduced into the cells using TransDux MAX Lentivirus Transduction Enhancer (System Biosciences, Palo Alto, CA) and screened to select the transduced cells using puromycin. The transduced cells were treated with the compounds for 24 h in media containing 5% cFBS (charcoal-treated fetal bovine serum) and the luminescence was read by ONE-Glo Luciferase Assay System (Promega, Madison, WI) using Cytation 5 (BioTek, Winooski, VT).

[2] = system: LXRα/β binding to the LXRE within the ABCA1 promoter region; assay: ChIP assay in HaCaT keratinocytes; format: cell-based, human; conditions: 10^–7 M, 24 h
Description: We followed protocols described in Ref.[40]. […] The cells were harvested and in vivo crosslinking, lysis and sonication of the chromatin, as well as following steps of ChIP assay, were done using Magna ChiP G Kit 0002 (Millipore). […] The purified DNA fragments were PCR amplified with the following sequence of PCR primers for human ABCA1 LXR-responsive element (LXRE): Forward: [NT], Reverse: [NT] and for human GAPDH as a reference gene: Forward: [NT], Reverse: [NT] (Eurofins Genomics). The PCR reaction was performed using Dream Taq Green PCR Master Mix (2×) (Thermo Scientific, cat. no. K1081) according to the following procedure: initial denaturation: 95 °C for 3 min; denaturation: 95 °C for 30 s (× 35 cycles); annealing: 58 °C for 30 s (× 35 cycles in the same cycles with denaturation); extension: 72 °C for 1 min; final extension: 72 °C for 15 min. The detection of amplification product was done by standard agarose gel electrophoresis with EtBr using Invitrogen iBright CL1000 Imaging System, with # SM Gene Ruler 1 kb Plus DNA Ladder (Thermo Scientific) as a marker.

LXRα = target: T2, LXRα (Homo sapiens, UniProt Q13133); assay: Ligand induced translocation of LXRα to the nucleus, immunofluorescence in HaCaT; format: cell-based; conditions: 10^−7 M, 24 h
T2 construct: endogenous in cells; host or cells: HaCaT keratinocytes
T2 sequence (Q13133 1-447): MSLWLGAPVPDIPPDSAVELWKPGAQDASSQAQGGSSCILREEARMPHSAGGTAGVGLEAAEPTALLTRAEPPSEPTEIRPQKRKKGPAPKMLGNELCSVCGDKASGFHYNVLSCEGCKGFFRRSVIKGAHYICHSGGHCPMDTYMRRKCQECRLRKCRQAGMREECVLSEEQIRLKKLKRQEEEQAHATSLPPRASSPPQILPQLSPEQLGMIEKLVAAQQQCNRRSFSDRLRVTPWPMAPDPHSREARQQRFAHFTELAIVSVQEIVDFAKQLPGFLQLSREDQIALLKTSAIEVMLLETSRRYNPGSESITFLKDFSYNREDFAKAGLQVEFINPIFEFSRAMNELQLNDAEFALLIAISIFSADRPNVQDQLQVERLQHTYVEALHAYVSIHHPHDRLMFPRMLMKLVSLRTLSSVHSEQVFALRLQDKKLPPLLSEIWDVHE
Experimental: HaCaT cells were plated in DMEM plus 5% cFBS either on a sterile glass cover slip placed in a well of a 6-well plates for immunofluorescence (IF) assays or TPP Petri dishes for image-stream flow cytometry, and treated with 10^–7 M D3- or L3-hydroxyderivatives or 0.1% ethanol (vehicle) as a negative control was added to each well, and the cells were incubated for 12 or 24 h at 37 °C with 5% CO2. For IF the cells were fixed in 4% paraformaldehyde for 15 min, incubated in 0.5% Triton X-100 in phosphate-buffered saline (PBS) for 5 min, and washed 3 times in PBS. After blocking with 2% bovine serum albumin (BSA) in PBS for 1 h at room temperature, the cells were treated with an anti-LXRα antibody (Novus Biologicals, LLC, Centennial, CO) at 1:200 in PBS supplemented with 2% BSA overnight in 4 °C. After washing the slides were incubated with a mouse anti-rabbit IgG-FITC (Santa Cruz Biotechnology, Inc, Dallas, TX) at 1:200 dilution for 1.5 h at 37 °C. After washing the slides were mounted using propidium iodide (PI) (Vector Labs, Burlingame, California) as a nuclear counterstain. The slides were examined using a KEYENCE America BZ-X710 Fluorescence Microscope (Itasca, IL). The images were subsequently analyzed using the JACoP plugin for colocalization analysis with ImageJ[74]. Five separate high-power field (40×) images were converted to grayscale and analyzed for each condition. Manders’ coefficient (M1), calculated using a preset threshold, was used to quantify the degree of colocalization between PI and LXRα with 0 representing no colocalization, and 1 representing perfect colocalization.

| translocation of VDR from the cytoplasm to the nucleus (VDR) | LXRα/β binding to the LXRE within the ABCA1 promoter region (ChIP) [2] | translocation of LXRα to the nucleus (immunofluorescence, Manders' coefficient) (LXRα) | SMILES | LXRE luciferase (transcriptional) activity [1] |
| --- | --- | --- | --- | --- |
| increased translocation |  |  | C=C1C(=CC=C2CCCC3(C)C2CCC3C(C)(O)CC(O)CC(C)C)CC(O)CC1O (stereo not shown) [1,20,23(OH)3D3] | strongest stimulatory effects |
|  | significant stimulation | induced translocation | C=C1/C(=C\C=C2/CCC[C@]3(C)[C@@H]([C@H](C)CCCC(C)(C)O)CC[C@@H]23)C[C@@H](O)C[C@@H]1O [1,25(OH)2D3, reference compound] | strongest stimulatory effects |
| increased translocation |  | induced translocation | C=C1CC[C@H](O)C/C1=C/C=C1\CCC[C@@]2(C)[C@H]1CC[C@@H]2[C@@](C)(O)CCCC(C)C [20(OH)D3] |  |

From publication PMC8044163, “Vitamin D and lumisterol derivatives can act on liver X receptors (LXRs)” (Scientific Reports, 2021)
